Source: the supplement of paper PMC11451515

Tests used:
Conditions in all cases: 48 h
P12-Ichikawa [1] = assay: AUC of viability dose-response curve (% viability x log10 dose units); higher = less sensitive
Outline: (§1)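 Seeding of medium-adapted leukemia cells was at 500 or 1000 cells/well in 1536-well plates, followed by 48 h at 37°C with library compounds in DMSO at 11 threefold doses from 47 μM to 0.79 nM. CellTiter-Glo One luminescence was normalised per plate to DMSO and cell-free wells and fitted as a four-parameter log-logistic function of log10 dose. Area under the curve was integrated by trapezoidal rule, with curves exceeding full viability scaled and curves failing quality control removed.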

NOMO1 = assay: as above
Outline: as §1

SEM cells [2] = assay: as above
Outline: as §1

P12-Ichikawa [3] = assay: cell viability relative to DMSO control; higher = less cytotoxic
Outline: (§2)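 Leukemia cells (NOMO1 or SEM, 500 cells/well; P12-Ichikawa, 1000 cells/well) were seeded in 5 μl in 1536-well plates after at least four passages of adaptation to each medium. They received library compounds in DMSO by pin dosing, 11 threefold points from 47 μM to 0.79 nM. Luminescence with CellTiter-Glo One was read after 48 h at 37°C. Viability is stated per plate relative to DMSO wells, with cell-free wells as background.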

SEM cells [4] = assay: as above
Outline: as §2

C[C@@H]\1COC(=N1)\NC2=CC3=C(C=C2)N=CN=C3NC4=CC(=C(OCC5=NC=CS5)C=C4)Cl
AUC of viability dose-response curve
Conditions	NOMO1	P12-Ichikawa [1]	SEM cells [2]
HPLM + 10% dialyzed FBS	454	455	461
RPMI 5 mM glucose + 10% FBS	447	447	457
RPMI 5 mM glucose + 10% dialyzed FBS	463	449	457

C[C@]12CC[C@@H]3c4ccc(OC(=O)N(CCCl)CCCl)cc4CC[C@H]3[C@@H]1CC[C@@H]2OP(=O)([O-])[O-].[Na+].[Na+]
AUC of viability dose-response curve
Conditions	HPLM + 10% dialyzed FBS	RPMI 5 mM glucose + 10% FBS	RPMI 5 mM glucose + 10% dialyzed FBS
NOMO1	406	460	455
SEM cells [2]	429	397	382

cell viability [%]
Conditions	HPLM + 10% dialyzed FBS	RPMI 5 mM glucose + 10% FBS	RPMI 5 mM glucose + 10% dialyzed FBS
P12-Ichikawa [3], 0.000781 µM	118	115	107
P12-Ichikawa [3], 0.00234 µM	115	118	116
P12-Ichikawa [3], 0.00702 µM	113	117	117
P12-Ichikawa [3], 0.0211 µM	94.4	89	82.8
P12-Ichikawa [3], 0.0632 µM	121	5.78	117
P12-Ichikawa [3], 0.19 µM	117	123	105
P12-Ichikawa [3], 0.569 µM	105	118	106
P12-Ichikawa [3], 1.71 µM	111	117	111
P12-Ichikawa [3], 5.12 µM	113	106	96
P12-Ichikawa [3], 15.4 µM	110	98.7	104
P12-Ichikawa [3], 46.1 µM	26.6	119	88.1
SEM cells [4], 0.000781 µM	107	101	111
SEM cells [4], 0.00234 µM	107	118	112
SEM cells [4], 0.00702 µM	120	120	102
SEM cells [4], 0.0211 µM	109	99.2	85.3
SEM cells [4], 0.0632 µM	106	118	110
SEM cells [4], 0.19 µM	105	115	93.9
SEM cells [4], 0.569 µM	104	87.9	83.4
SEM cells [4], 1.71 µM	108	90.5	76.3
SEM cells [4], 5.12 µM	66.8	68.1	67.5
SEM cells [4], 15.4 µM	62.5	65.4	65.3
SEM cells [4], 46.1 µM	63.2	27.5	54.9

NC1(c2ccc(-c3nc4ccn5c(=O)[nH]nc5c4cc3-c3ccccc3)cc2)CCC1
AUC of viability dose-response curve
Conditions	NOMO1	P12-Ichikawa [1]	SEM cells [2]
HPLM + 10% dialyzed FBS	392	396	322
RPMI 5 mM glucose + 10% FBS	451	366	318
RPMI 5 mM glucose + 10% dialyzed FBS	423	361	298

SEM cells [4], HPLM + 10% dialyzed FBS
Conditions	cell viability [%]
0.000781 µM	123
0.00234 µM	138
0.00702 µM	125
0.0211 µM	74.7
0.0632 µM	125
0.19 µM	104
0.569 µM	78.3
1.71 µM	65.1
5.12 µM	43.8
15.4 µM	37.9
46.1 µM	14.4

O=C1c2c(O)cc(O)cc2O[C@H](c2ccc(O)c(O)c2)[C@H]1O
AUC of viability dose-response curve
Conditions	NOMO1	P12-Ichikawa [1]	SEM cells [2]
HPLM + 10% dialyzed FBS	469	459	454
RPMI 5 mM glucose + 10% FBS	475	453	470
RPMI 5 mM glucose + 10% dialyzed FBS	453	465	450

cell viability [%], SEM cells [4]
Conditions	HPLM + 10% dialyzed FBS	RPMI 5 mM glucose + 10% FBS
0.000781 µM	113	121
0.00234 µM	120	123
0.00702 µM	132	136
0.0211 µM	113	150
0.0632 µM	117	126
0.19 µM	125	126
0.569 µM	127	122
1.71 µM	143	122
5.12 µM	126	127
15.4 µM	127	125
46.1 µM	131	128

O=C(Nc1cccc(Cl)c1)Nc1ncc(CCNc2ncnc3ccsc23)s1
AUC of viability dose-response curve
Conditions	NOMO1	P12-Ichikawa [1]	SEM cells [2]
HPLM + 10% dialyzed FBS	362	290	301
RPMI 5 mM glucose + 10% FBS	374	306	272
RPMI 5 mM glucose + 10% dialyzed FBS	385	301	274

CCCC1=NC(=C2[N]1NC(=N\C2=O)/C3=CC(=CC=C3OCC)[S+]([O-])(=O)N4CCN(CC)CC4)C
AUC of viability dose-response curve
Conditions	NOMO1	P12-Ichikawa [1]	SEM cells [2]
HPLM + 10% dialyzed FBS	402	421	417
RPMI 5 mM glucose + 10% FBS	409	402	407
RPMI 5 mM glucose + 10% dialyzed FBS	406	399	401

SEM cells [4], RPMI 5 mM glucose + 10% dialyzed FBS
Conditions	cell viability [%]
0.000781 µM	125
0.00234 µM	115
0.00702 µM	128
0.0211 µM	131
0.0632 µM	143
0.19 µM	134
0.569 µM	140
1.71 µM	145
5.12 µM	106
15.4 µM	10.4
46.1 µM	6.51

CCCNC(=O)[C@H]1O[C@@H]1C(=O)N[C@H](C(=O)N1CCC[C@H]1C(=O)OC)C(C)CC (stereo partly drawn)
AUC of viability dose-response curve
Conditions	NOMO1	P12-Ichikawa [1]	SEM cells [2]
HPLM + 10% dialyzed FBS	444	446	439
RPMI 5 mM glucose + 10% FBS	421	416	420
RPMI 5 mM glucose + 10% dialyzed FBS	449	424	433

Fc1ccc(Cl)cc1-c1nc(Nc2ccncc2)c2nccnc2n1
AUC of viability dose-response curve
Conditions	NOMO1	P12-Ichikawa [1]	SEM cells [2]
HPLM + 10% dialyzed FBS	461	463	453
RPMI 5 mM glucose + 10% FBS	438	457	464
RPMI 5 mM glucose + 10% dialyzed FBS	442	451	467

COC(=O)Nc1ccc(-c2nc(N3CCOCC3)c3cnn(C4CCN(C(=O)OC)CC4)c3n2)cc1
AUC of viability dose-response curve
Conditions	NOMO1	P12-Ichikawa [1]	SEM cells [2]
HPLM + 10% dialyzed FBS	337	343	337
RPMI 5 mM glucose + 10% FBS	392	339	375
RPMI 5 mM glucose + 10% dialyzed FBS	336	331	382

NC1(C(=O)N[C@@H](CCO)c2ccc(Cl)cc2)CCN(c2ncnc3[nH]ccc23)CC1
AUC of viability dose-response curve
Conditions	NOMO1	P12-Ichikawa [1]	SEM cells [2]
HPLM + 10% dialyzed FBS	409	391	375
RPMI 5 mM glucose + 10% FBS	413	362	378
RPMI 5 mM glucose + 10% dialyzed FBS	423	378	356

CC(=O)O[C@H]1C[C@@H]2CC[C@@H]3[C@H](CC[C@@]4(C)[C@H]3C[C@H]([N+]3(C)CCCCC3)[C@@H]4OC(C)=O)[C@@]2(C)C[C@@H]1[N+]1(C)CCCCC1
AUC of viability dose-response curve
Conditions	NOMO1	P12-Ichikawa [1]	SEM cells [2]
HPLM + 10% dialyzed FBS	459	464	477
RPMI 5 mM glucose + 10% FBS	466	457	438
RPMI 5 mM glucose + 10% dialyzed FBS	472	465	465

Conditions	cell viability [%]
P12-Ichikawa [3], RPMI 5 mM glucose + 10% dialyzed FBS, 0.000781 µM	123
P12-Ichikawa [3], RPMI 5 mM glucose + 10% dialyzed FBS, 0.00234 µM	134
P12-Ichikawa [3], RPMI 5 mM glucose + 10% dialyzed FBS, 0.00702 µM	121
P12-Ichikawa [3], RPMI 5 mM glucose + 10% dialyzed FBS, 0.0211 µM	124
P12-Ichikawa [3], RPMI 5 mM glucose + 10% dialyzed FBS, 0.0632 µM	132
P12-Ichikawa [3], RPMI 5 mM glucose + 10% dialyzed FBS, 0.19 µM	125
P12-Ichikawa [3], RPMI 5 mM glucose + 10% dialyzed FBS, 0.569 µM	127
P12-Ichikawa [3], RPMI 5 mM glucose + 10% dialyzed FBS, 1.71 µM	117
P12-Ichikawa [3], RPMI 5 mM glucose + 10% dialyzed FBS, 5.12 µM	125
P12-Ichikawa [3], RPMI 5 mM glucose + 10% dialyzed FBS, 15.4 µM	117
P12-Ichikawa [3], RPMI 5 mM glucose + 10% dialyzed FBS, 46.1 µM	113
SEM cells [4], HPLM + 10% dialyzed FBS, 0.000781 µM	110
SEM cells [4], HPLM + 10% dialyzed FBS, 0.00234 µM	110
SEM cells [4], HPLM + 10% dialyzed FBS, 0.00702 µM	119
SEM cells [4], HPLM + 10% dialyzed FBS, 0.0211 µM	126
SEM cells [4], HPLM + 10% dialyzed FBS, 0.0632 µM	108
SEM cells [4], HPLM + 10% dialyzed FBS, 0.19 µM	108
SEM cells [4], HPLM + 10% dialyzed FBS, 0.569 µM	115
SEM cells [4], HPLM + 10% dialyzed FBS, 1.71 µM	121
SEM cells [4], HPLM + 10% dialyzed FBS, 5.12 µM	109
SEM cells [4], HPLM + 10% dialyzed FBS, 15.4 µM	110
SEM cells [4], HPLM + 10% dialyzed FBS, 46.1 µM	117
